Target: T1, ZmOMT1 (Zea mays, UniProt Q768R5)
T1 construct: gene ZmpOMT1; full-length CDS with C-terminal AcV5 tag kept; expressed in transgenic rice (Oryza sativa indica IR64) leaf mesophyll; total leaf membrane protein reconstituted into liposomes; calculated ~60 kDa, 40 kDa on blot
T1 sequence (Q768R5 81-578): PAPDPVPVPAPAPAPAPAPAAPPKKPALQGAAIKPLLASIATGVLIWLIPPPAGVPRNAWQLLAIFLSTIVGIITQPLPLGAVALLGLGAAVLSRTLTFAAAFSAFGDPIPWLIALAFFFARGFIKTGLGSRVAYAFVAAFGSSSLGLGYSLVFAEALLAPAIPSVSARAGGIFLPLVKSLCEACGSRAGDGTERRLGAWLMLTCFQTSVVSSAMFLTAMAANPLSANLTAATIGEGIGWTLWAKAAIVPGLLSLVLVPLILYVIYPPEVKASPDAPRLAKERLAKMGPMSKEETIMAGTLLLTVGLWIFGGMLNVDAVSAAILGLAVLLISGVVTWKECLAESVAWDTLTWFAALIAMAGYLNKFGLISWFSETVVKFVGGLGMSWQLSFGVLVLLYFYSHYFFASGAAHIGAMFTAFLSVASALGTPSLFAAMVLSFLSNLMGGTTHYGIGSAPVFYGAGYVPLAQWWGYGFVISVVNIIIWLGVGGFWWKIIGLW
Experiment: […]malate uptake into proteoliposomes, malate/malate counterexchange
Type: biochemical
Details: pH 7.5; 30 mM malate preloaded inside; 0.3 mM external [14C]malate; total leaf membrane protein of transgenic rice versus wild type (native rice transporters present); labelled compound

O=C(O)C[C@H](O)C(=O)O [malate]
[14C]malate uptake into proteoliposomes, malate/malate counterexchange: significantly higher malate–malate counterexchange activity in liposomes reconstituted with membrane proteins from overexpression lines

Source: article PMC7816853, “Overexpression of the chloroplastic 2-oxoglutarate/malate transporter disturbs carbon and nitrogen homeostasis in rice” (Journal of Experimental Botany, 2020)
